Experiments:
[1] = target: T1, 5-hydroxytryptamine receptor 2A (Homo sapiens, UniProt P28223); type: functional, cell-based
Progesterone receptor = target: T2, Progesterone receptor (Homo sapiens, UniProt P06401); type: functional
T2 sequence (P06401 whole entry): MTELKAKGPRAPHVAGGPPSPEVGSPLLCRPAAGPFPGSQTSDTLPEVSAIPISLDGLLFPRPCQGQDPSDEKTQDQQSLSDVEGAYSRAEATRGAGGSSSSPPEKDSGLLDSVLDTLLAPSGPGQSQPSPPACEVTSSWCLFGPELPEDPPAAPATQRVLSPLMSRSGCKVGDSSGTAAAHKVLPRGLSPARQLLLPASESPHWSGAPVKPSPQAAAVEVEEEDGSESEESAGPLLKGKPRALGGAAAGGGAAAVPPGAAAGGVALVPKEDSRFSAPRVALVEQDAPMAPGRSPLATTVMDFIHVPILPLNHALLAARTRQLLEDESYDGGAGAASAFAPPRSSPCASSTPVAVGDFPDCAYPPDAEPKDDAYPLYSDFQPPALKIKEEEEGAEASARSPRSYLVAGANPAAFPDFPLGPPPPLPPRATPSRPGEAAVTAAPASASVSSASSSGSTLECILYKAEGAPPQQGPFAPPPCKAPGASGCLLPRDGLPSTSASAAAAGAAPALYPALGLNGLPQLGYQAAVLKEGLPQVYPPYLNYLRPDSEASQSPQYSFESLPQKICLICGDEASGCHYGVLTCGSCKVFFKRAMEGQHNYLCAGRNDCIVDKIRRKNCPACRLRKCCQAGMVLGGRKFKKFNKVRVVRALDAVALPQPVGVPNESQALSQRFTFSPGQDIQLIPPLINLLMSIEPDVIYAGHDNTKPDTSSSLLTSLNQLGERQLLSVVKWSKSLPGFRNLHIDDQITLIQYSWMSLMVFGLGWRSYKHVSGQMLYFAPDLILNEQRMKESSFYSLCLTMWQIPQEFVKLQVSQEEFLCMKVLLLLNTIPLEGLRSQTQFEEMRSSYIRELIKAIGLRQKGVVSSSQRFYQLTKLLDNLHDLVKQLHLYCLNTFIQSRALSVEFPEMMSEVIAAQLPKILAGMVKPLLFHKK

Mu-type opioid receptor [2] = target: T3, Mu-type opioid receptor (Homo sapiens, UniProt P35372); test: biochemical; type: functional
T3 sequence (P35372 whole entry): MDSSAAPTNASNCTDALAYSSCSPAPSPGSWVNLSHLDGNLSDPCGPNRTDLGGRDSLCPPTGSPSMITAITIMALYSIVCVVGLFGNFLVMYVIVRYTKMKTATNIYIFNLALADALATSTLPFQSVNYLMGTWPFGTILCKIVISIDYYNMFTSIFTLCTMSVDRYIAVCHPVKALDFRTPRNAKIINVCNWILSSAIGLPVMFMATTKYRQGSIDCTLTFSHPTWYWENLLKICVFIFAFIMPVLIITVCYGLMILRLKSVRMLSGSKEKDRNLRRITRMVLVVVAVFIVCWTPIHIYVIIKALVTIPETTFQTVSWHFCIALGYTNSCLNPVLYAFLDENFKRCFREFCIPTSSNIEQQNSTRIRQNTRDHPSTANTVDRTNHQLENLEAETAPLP

[3] = target: T1, 5-hydroxytryptamine receptor 2A; type: functional, cell-based; remark: listed apart in the source
[4] = target: T4, Alpha-1A adrenergic receptor (Homo sapiens, UniProt P35348)
T4 sequence (P35348 whole entry): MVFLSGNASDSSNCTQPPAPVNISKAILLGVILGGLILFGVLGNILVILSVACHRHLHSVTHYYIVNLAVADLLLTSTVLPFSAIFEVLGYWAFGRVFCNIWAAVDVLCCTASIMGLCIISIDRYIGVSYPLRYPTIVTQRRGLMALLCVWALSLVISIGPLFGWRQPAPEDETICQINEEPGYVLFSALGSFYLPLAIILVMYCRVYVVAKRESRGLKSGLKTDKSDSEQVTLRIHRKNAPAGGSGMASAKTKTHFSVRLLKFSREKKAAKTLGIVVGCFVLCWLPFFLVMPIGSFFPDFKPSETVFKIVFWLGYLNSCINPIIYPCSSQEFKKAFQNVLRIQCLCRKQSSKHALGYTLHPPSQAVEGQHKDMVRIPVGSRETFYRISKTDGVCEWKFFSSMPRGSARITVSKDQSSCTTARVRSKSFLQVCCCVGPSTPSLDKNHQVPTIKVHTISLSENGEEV

Mu-type opioid receptor [5] = target: T3, Mu-type opioid receptor
Melanocortin receptor 4 = Melanocortin receptor 4 (Homo sapiens, UniProt P32245)
Chain of Melanocortin receptor 4 (P32245 whole entry): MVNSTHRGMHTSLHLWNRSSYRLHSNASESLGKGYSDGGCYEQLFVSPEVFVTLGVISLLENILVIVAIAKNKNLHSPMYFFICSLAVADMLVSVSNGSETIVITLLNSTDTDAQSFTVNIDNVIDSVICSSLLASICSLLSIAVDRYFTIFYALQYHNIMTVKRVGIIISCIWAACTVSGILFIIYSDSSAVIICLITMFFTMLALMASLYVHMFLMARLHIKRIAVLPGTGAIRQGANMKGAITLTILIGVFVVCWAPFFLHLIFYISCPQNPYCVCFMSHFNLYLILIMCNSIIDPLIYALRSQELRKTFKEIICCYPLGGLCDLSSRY

B1 bradykinin receptor = target: T5, B1 bradykinin receptor (Homo sapiens, UniProt P46663)
T5 sequence (P46663 whole entry): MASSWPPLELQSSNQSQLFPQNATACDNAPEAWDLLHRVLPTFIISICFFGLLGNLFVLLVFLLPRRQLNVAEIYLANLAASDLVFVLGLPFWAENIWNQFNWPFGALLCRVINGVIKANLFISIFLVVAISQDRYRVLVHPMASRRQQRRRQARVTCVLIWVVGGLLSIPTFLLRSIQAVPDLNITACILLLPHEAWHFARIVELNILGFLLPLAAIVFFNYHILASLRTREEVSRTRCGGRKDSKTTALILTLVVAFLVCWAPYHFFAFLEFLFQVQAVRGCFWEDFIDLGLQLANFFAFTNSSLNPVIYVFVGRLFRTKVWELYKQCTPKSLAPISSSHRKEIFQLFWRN

[6] = target: T6, Gastric inhibitory polypeptide receptor (Homo sapiens, UniProt P48546)
T6 sequence (P48546 whole entry): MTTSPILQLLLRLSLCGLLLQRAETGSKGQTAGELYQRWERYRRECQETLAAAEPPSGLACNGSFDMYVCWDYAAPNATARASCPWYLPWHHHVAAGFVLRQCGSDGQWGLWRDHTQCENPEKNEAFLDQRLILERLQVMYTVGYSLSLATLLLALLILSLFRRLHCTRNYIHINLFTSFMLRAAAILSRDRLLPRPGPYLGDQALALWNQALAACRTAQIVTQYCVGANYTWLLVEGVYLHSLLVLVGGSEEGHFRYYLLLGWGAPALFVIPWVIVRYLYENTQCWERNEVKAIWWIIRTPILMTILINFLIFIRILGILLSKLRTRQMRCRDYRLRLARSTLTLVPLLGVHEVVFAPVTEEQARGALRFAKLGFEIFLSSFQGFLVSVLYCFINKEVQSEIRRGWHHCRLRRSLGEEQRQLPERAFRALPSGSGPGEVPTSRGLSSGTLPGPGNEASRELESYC

[7] = target: T7, Corticotropin-releasing factor receptor 1 (Homo sapiens, UniProt P34998)
T7 sequence (P34998 whole entry): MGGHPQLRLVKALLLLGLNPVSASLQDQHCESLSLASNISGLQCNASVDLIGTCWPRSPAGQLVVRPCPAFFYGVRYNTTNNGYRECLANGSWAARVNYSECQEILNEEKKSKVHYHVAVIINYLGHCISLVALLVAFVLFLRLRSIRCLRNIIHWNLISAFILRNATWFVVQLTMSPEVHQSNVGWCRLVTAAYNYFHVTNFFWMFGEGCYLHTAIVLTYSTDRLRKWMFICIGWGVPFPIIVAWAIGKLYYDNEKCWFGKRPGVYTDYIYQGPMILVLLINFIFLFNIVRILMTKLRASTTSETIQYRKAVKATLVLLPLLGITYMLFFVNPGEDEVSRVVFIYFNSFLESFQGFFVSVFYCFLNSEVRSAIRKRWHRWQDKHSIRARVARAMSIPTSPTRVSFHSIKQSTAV

Estrogen receptor beta = Estrogen receptor beta (Homo sapiens, UniProt Q92731)
Chain of Estrogen receptor beta (Q92731 whole entry): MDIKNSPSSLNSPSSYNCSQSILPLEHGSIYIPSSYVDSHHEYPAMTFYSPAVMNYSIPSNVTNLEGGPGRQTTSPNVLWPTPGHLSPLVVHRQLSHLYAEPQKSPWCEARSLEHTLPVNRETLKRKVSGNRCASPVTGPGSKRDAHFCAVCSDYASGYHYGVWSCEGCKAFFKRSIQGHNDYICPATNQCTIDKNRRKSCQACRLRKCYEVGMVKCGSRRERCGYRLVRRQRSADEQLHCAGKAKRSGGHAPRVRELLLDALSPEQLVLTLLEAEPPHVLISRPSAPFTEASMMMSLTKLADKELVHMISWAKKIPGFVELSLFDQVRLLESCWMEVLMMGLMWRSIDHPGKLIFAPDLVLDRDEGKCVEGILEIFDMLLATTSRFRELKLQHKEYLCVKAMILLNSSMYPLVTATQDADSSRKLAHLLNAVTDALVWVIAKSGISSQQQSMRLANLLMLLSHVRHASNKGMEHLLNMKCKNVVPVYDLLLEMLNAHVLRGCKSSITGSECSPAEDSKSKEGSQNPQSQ
Also: assay procedure not described here.

T1 sequence (P28223 whole entry): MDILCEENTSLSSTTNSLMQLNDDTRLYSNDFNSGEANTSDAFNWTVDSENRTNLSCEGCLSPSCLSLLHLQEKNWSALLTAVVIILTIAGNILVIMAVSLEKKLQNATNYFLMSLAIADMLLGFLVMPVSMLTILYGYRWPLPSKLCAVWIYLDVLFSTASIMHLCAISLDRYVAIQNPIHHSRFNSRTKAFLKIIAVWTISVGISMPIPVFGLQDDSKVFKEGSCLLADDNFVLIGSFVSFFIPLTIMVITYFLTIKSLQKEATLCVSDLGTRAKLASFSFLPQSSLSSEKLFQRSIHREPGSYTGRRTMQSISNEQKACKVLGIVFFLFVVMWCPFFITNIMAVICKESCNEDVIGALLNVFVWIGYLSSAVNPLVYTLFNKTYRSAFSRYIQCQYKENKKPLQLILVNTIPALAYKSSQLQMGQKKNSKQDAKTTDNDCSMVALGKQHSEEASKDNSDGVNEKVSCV

| SMILES | AC50 [1] [µM] | AC50 (Progesterone receptor) [µM] | AC50 (Mu-type opioid receptor [2]) [µM] | AC50 [3] [µM] | AC50 [4] [µM] | AC50 (Mu-type opioid receptor [5]) [µM] | AC50 (Melanocortin receptor 4) [µM] | AC50 (B1 bradykinin receptor) [µM] | AC50 [6] [µM] | AC50 [7] [µM] | AC50 (Estrogen receptor beta) [µM] |
| --- | --- | --- | --- | --- | --- | --- | --- | --- | --- | --- | --- |
| CC[C@@H](C(N)=O)N1CCCC1=O | > 30 | > 30 | > 30 | > 30 |  |  |  |  |  |  |  |
| CCC(CC)(CC(=O)Nc1cccc(/C=C/c2nc(C3CCC3)cs2)c1)C(=O)O |  | > 30 |  |  |  |  |  |  |  |  |  |
| Nc1ccncc1N [AMIFAMPRIDINE] |  |  |  |  | > 30 |  |  |  |  |  |  |
| CCCC1O[C@@H]2C[C@H]3[C@@H]4CCC5=CC(=O)C=C[C@]5(C)[C@H]4[C@@H](O)C[C@]3(C)[C@]2(C(=O)CO)O1 (stereo not given in full) [BUDESONIDE] |  |  |  |  |  | > 30 | > 10 |  |  |  |  |
| C=CCN1C[C@H](C(=O)N(CCCN(C)C)C(=O)NCC)C[C@@H]2c3cccc4[nH]cc(c34)C[C@H]21 [CABERGOLINE] | 0.0626 | > 10 |  |  |  | > 30 | > 10 |  |  |  |  |
| CN1CCN(C2=Nc3ccccc3Sc3ccc(Cl)cc32)CC1 [CLOTHIAPINE] | > 30 |  | 11 | 1 |  |  |  |  |  |  |  |
| CN(C)CCC=C1c2ccccc2C=Cc2ccccc21 [CYCLOBENZAPRINE] |  |  |  |  |  | > 10 | > 30 | > 30 | > 30 | > 30 | > 30 |
| CCOc1ccc(Cc2cc([C@@H]3O[C@H](CO)[C@@H](O)[C@H](O)[C@H]3O)ccc2Cl)cc1 [DAPAGLIFLOZIN] |  |  |  |  |  | > 30 | > 30 |  |  |  |  |
| CN(C)CC/C=C1\c2ccccc2CSc2ccccc21 [DOTHIEPIN] | > 30 |  | > 30 | 4.8 |  |  |  |  |  |  |  |
| CC[C@H]1CN2CCc3cc(OC)c(OC)cc3[C@@H]2C[C@@H]1C[C@H]1NCCc2cc(OC)c(OC)cc21 [EMETINE] |  | > 30 | > 30 |  | 2.51 | 18 |  |  |  |  |  |
| COc1ccc(C(=O)Nc2ccccc2CCC2CCCCN2C)cc1 (stereo not given) [ENCAINIDE] | > 30 |  |  | 2.2 |  | > 30 | > 30 | > 30 | > 30 | > 30 | > 30 |
| O=[N+]([O-])O[C@@H]1CO[C@H]2[C@@H]1OC[C@@H]2O [ISOSORBIDE MONONITRATE] |  |  |  |  |  | > 30 | > 30 | > 30 | > 30 | > 30 | > 30 |
| Cc1cc(C)c(NC(=O)CN(CC(=O)O)CC(=O)O)c(C)c1Br [MEBROFENIN] | > 30 |  | > 30 | > 30 | > 30 |  |  |  |  |  |  |
| COc1ccccc1N1CCN(CC(O)COc2cccc3ccccc23)CC1 (stereo not given) [NAFTOPIDIL] | > 30 | > 30 | 26 | 9.2 | 0.02 |  |  |  |  |  |  |
| COc1cc2nc(N3CCN(C(=O)c4ccco4)CC3)nc(N)c2cc1OC [PRAZOSIN] |  |  | > 30 |  |  | 4.1 | > 30 | > 30 | > 30 | > 30 | > 30 |
| O=[N+]([O-])c1cn2c(n1)OC[C@@H](OCc1ccc(OC(F)(F)F)cc1)C2 [PRETOMANID] |  |  |  |  |  | > 10 | > 30 | > 30 |  |  |  |
| Cc1oc(=O)oc1CN1CCN(c2cc3c(cc2F)c(=O)c(C(=O)O)c2n3C(C)S2)CC1 (stereo not given) [PRULIFLOXACIN] | > 30 |  | > 30 | > 30 | > 30 |  |  |  |  |  |  |
| CCCCCNC(=N)N/N=C/c1c[nH]c2ccc(OC)cc12 [TEGASEROD] | > 30 | > 30 | > 30 | 1.5 |  | 2.8 | 5.34 | > 30 | > 30 | > 30 | > 30 |
| COC1=C(OC)C(=O)C(C/C=C(\C)CC/C=C(\C)CC/C=C(\C)CC/C=C(\C)CC/C=C(\C)CC/C=C(\C)CC/C=C(\C)CC/C=C(\C)CC/C=C(\C)CCC=C(C)C)=C(C)C1=O [UBIDECARENONE] | > 30 |  | > 30 | > 30 |  |  |  |  |  |  |  |
| C=CCCCCCCCCC(=O)O [UNDECYLENIC ACID] |  |  |  |  | > 30 |  |  |  |  |  |  |
| CCOc1ccccc1OCC1CNCCO1 (stereo not given) [VILOXAZINE] |  |  |  |  |  | > 10 | > 30 | > 30 | > 30 | > 30 | > 30 |
| CN(C)CCc1c[nH]c2ccc(C[C@H]3COC(=O)N3)cc12 [ZOLMITRIPTAN] | 14 | > 30 | > 30 |  |  |  |  |  |  |  |  |
